Tests used:
Format in all cases: in vivo
[1] = system: Diabrotica Balteata (Corn Root Worm); assay: Example B1: Diabrotica balteata (corn root worm), maize sprouts sprayed, L2 larvae; settings: 96 h, application rate of 200 ppm, 4 days after infestation, L2 larvae, read-out: control in at least one of the two categories (mortality or growth inhibition)
Protocol: Maize sprouts placed onto an agar layer in 24-well microtiter plates were treated with aqueous test solutions prepared from 10′000 ppm DMSO stock solutions by spraying. After drying, the plates were infested with L2 larvae (6 to 10 per well). The samples were assessed for mortality and growth inhibition in comparison to untreated samples 4 days after infestation.

[2] = system: Chilo suppressalis (Striped Rice Stemborer); assay: Example B3: Chilo suppressalis (striped rice stemborer), artificial diet, L2 larvae; settings: 144 h, application rate of 200 ppm, 6 days after infestation, L2 larvae, read-out: control in at least one of the three categories (mortality, anti-feedant effect, or growth inhibition)
Protocol: 24-well microtiter plates with artificial diet were treated with aqueous test solutions prepared from 10′000 ppm DMSO stock solutions by pipetting. After drying, the plates were infested with L2 larvae (6-8 per well). The samples were assessed for mortality, anti-feeding effect, and growth inhibition in comparison to untreated samples 6 days after infestation. Control of Chilo suppressalis by a test sample is given when at least one of the categories mortality, anti-feedant effect, and growth inhibition is higher than the untreated sample.

[3] = system: Plutella xylostella (Diamond Back Moth); assay: Example B4: Plutella xylostella (diamond back moth), artificial diet, eggs, 24-well; settings: 192 h, application rate of 200 ppm, 8 days after infestation, eggs, read-out: control in at least one of the two categories (mortality or growth inhibition)
Protocol: 24-well microtiter plates with artificial diet were treated with aqueous test solutions prepared from 10′000 ppm DMSO stock solutions by pipetting. After drying, Plutella eggs were pipetted through a plastic stencil onto a gel blotting paper and the plate was closed with it. The samples were assessed for mortality and growth inhibition in comparison to untreated samples 8 days after infestation.

[4] = system: Spodoptera littoralis (Egyptian Cotton Leaf Worm); assay: Example B7: Spodoptera littoralis (Egyptian cotton leaf worm), cotton leaf discs sprayed, L1 larvae; settings: foliar, 72 h, application rate of 200 ppm, 3 days after infestation, L1 larvae, read-out: control in at least one of the three categories (mortality, anti-feedant effect, or growth inhibition)
Protocol: Cotton leaf discs were placed onto agar in 24-well microtiter plates and sprayed with aqueous test solutions prepared from 10′000 ppm DMSO stock solutions. After drying the leaf discs were infested with five L1 larvae. The samples were assessed for mortality, anti-feeding effect, and growth inhibition in comparison to untreated samples 3 days after infestation. Control of Spodoptera littoralis by a test sample is given when at least one of the categories mortality, anti-feedant effect, and growth inhibition is higher than the untreated sample.

CC(Nc1ncnc2c(Cl)cc(C(F)(F)F)cc12)c1nccnc1-c1ncccn1 (stereo not drawn) [P.101, 8-chloro-N-[1-(3-pyrimidin-2-ylpyrazin-2-yl)ethyl]-6-(trifluoromethyl)quinazolin-4-amine]
≥ 80%: percent control (mortality or growth inhibition) at 200 ppm [1] | percent control (mortality, anti-feedant effect or growth inhibition) at 200 ppm [2] | percent control (mortality or growth inhibition) at 200 ppm [3] | percent control (mortality, anti-feedant effect or growth inhibition) at 200 ppm [4]

CC(Nc1ncnc2c(Br)cc(Br)cc12)c1ncnn1-c1ccc(C#N)cn1 (stereo not drawn) [P.30, 6-[5-[1-[(6,8-dibromoquinazolin-4-yl)amino]ethyl]-1,2,4-triazol-1-yl]pyridine-3-carbonitrile]
≥ 80%: percent control (mortality or growth inhibition) at 200 ppm [1] | percent control (mortality, anti-feedant effect or growth inhibition) at 200 ppm [2] | percent control (mortality or growth inhibition) at 200 ppm [3] | percent control (mortality, anti-feedant effect or growth inhibition) at 200 ppm [4]

CC(Nc1ncnc2c(C(F)(F)F)cc(C(F)(F)F)cc12)c1nccnc1-c1ccc(OC(F)F)cn1 (stereo not drawn) [P.109, N-[1-[3-[5-(difluoromethoxy)-2-pyridyl]pyrazin-2-yl]ethyl]-6,8-bis(trifluoromethyl)quina-zolin-4-amine]
≥ 80%: percent control (mortality or growth inhibition) at 200 ppm [1] | percent control (mortality, anti-feedant effect or growth inhibition) at 200 ppm [2] | percent control (mortality or growth inhibition) at 200 ppm [3] | percent control (mortality, anti-feedant effect or growth inhibition) at 200 ppm [4]

CC(c1ncnn1-c1ccc(Br)cn1)N(C)c1ncnc2c(C(F)(F)F)cc(Br)cc12 (stereo not drawn) [P.237, 6-bromo-N-[1-[2-(5-bromo-2-pyridyl)-1,2,4-triazol-3-yl]ethyl]-N-methyl-8-(trifluoromethyl)quinazolin-4-amine]
≥ 80%: percent control (mortality or growth inhibition) at 200 ppm [1] | percent control (mortality, anti-feedant effect or growth inhibition) at 200 ppm [2] | percent control (mortality or growth inhibition) at 200 ppm [3] | percent control (mortality, anti-feedant effect or growth inhibition) at 200 ppm [4]

CC(Nc1ncnc2c(OC(F)(F)F)cc(Br)cc12)c1nccnc1-n1nccn1 (stereo not drawn) [P.14, 6-bromo-N-[1-[3-(triazol-2-yl)pyrazin-2-yl]ethyl]-8-(trifluoromethoxy)quina-zolin-4-amine]
≥ 80%: percent control (mortality or growth inhibition) at 200 ppm [1] | percent control (mortality, anti-feedant effect or growth inhibition) at 200 ppm [2] | percent control (mortality or growth inhibition) at 200 ppm [3] | percent control (mortality, anti-feedant effect or growth inhibition) at 200 ppm [4]

CC(Nc1ncnc2c(Br)cc(OC(F)(F)F)cc12)c1nccnc1-n1nccn1 (stereo not drawn) [P.13, 8-bromo-N-[1-[3-(triazol-2-yl)pyrazin-2-yl]ethyl]-6-(trifluoromethoxy)quina-zolin-4-amine]
≥ 80%: percent control (mortality or growth inhibition) at 200 ppm [1] | percent control (mortality, anti-feedant effect or growth inhibition) at 200 ppm [2] | percent control (mortality or growth inhibition) at 200 ppm [3] | percent control (mortality, anti-feedant effect or growth inhibition) at 200 ppm [4]

CC(c1ncnn1-c1ccc(F)cn1)N(C)c1ncnc2c(Cl)cc(C(F)(F)F)cc12 (stereo not drawn) [P.232, 8-chloro-N-[1-[2-(5-fluoro-2-pyridyl)-1,2,4-triazol-3-yl]ethyl]-N-methyl-6-(trifluoromethyl)quinazolin-4-amine]
≥ 80%: percent control (mortality or growth inhibition) at 200 ppm [1] | percent control (mortality, anti-feedant effect or growth inhibition) at 200 ppm [2] | percent control (mortality or growth inhibition) at 200 ppm [3] | percent control (mortality, anti-feedant effect or growth inhibition) at 200 ppm [4]

C[C@@H](c1ncnn1-c1ccc(C#N)cn1)N(C)c1ccnc2c(C(F)(F)F)cc(C(F)(F)F)cc12 [P.214, 6-[5-[(1S)-1-[[6,8-bis(trifluoromethyl)-4-quinolyl]-methyl-amino]ethyl]-1,2,4-triazol-1-yl]pyridine-3-carbonitrile]
≥ 80%: percent control (mortality or growth inhibition) at 200 ppm [1] | percent control (mortality, anti-feedant effect or growth inhibition) at 200 ppm [2] | percent control (mortality or growth inhibition) at 200 ppm [3] | percent control (mortality, anti-feedant effect or growth inhibition) at 200 ppm [4]

CC(Nc1ncnc2c(Cl)cc(Br)cc12)c1nccnc1-c1ncccn1 (stereo not drawn) [P.178, 6-bromo-8-chloro-N-[1-(3-pyrimidin-2-ylpyrazin-2-yl)ethyl]quinazolin-4-amine]
≥ 80%: percent control (mortality or growth inhibition) at 200 ppm [1] | percent control (mortality, anti-feedant effect or growth inhibition) at 200 ppm [2] | percent control (mortality or growth inhibition) at 200 ppm [3] | percent control (mortality, anti-feedant effect or growth inhibition) at 200 ppm [4]
